# Test results as given in patent EP0108147B1, “Use of a protoberberine alkaloid and composition containing same” (MAROKO, Peter R., priority 1982, dated 1983).
# Columns and labels:
# [1] = system: patients with heart failure; test: Intravenous berberine in patients with heart failure, catheterization laboratory; assay type: in vivo
# Method: Berberine HCI was used in patients with heart failure. […] The observations were done in a catheterization laboratory. […] Heart rate decreased in two patients and increased in one. On the average it decreased from 82 to 76 beats/min after 0.02 mg/kg/min and to 79 after 0.2 mg/kg/min. […] It is very impressive that in one patient it fell from 21 to 11 and then to 9 mmHg. Aortic systolic pressure fell from 115 mmHg to 104 and then to 108 mmHg. Aortic diastolic pressure fell from 78 to 68 and then to 67 mmHg. Aortic mean pressure fell from 93 to 80 to 84 mmHg. This is a mild fall in mean aortic pressure. […] These are very marked increases in cardiac output and cardiac index. […] These increases are again very remarkable. […] Thus, the 5 last […] indicated the profound aemelioration in ventricular performance. […] Contractility was evaluated by the indices LV-V max (left ventricular maximal shortening velocity of the contractile element) and LV-VPM (left ventricular peak measured shortening velocoty of the contracile elements).
# NaK-ATPase = conditions: Cohen et al., Biochem. Pharmacol. 27: 2555-2558, 1978; cited from earlier work
# [2] = system: dogs with acute left ventricular failure; test: MUGR ejection fraction in dogs with acute left ventricular failure after coronary embolization; assay type: in vivo; conditions: for EF: 0.2 mg/Kg/min
# Method: Nevertheless, to verify the response of dogs with acute heart failure with this sophisticated technique, this condition was provoked by previous embolization into the left coronary artery (as described below in protocol HV). thereafter, the effect of berberine infusion was analyzed after embolization. […] Berberine was infused in a rate of 0.2 mg/Kg/min for 30 minutes and MUGR was repeated after 2, 15, 22 and 28 minutes of infusion.
# Six dogs were studied using this technique (Table XV). […] The thirty minute infusion of berberine (0.2 mg/Kg/min) was administered. During this period four radionuclide ventriculographies were obtained and averaged. After discontinuation of the infusion again four radionuclide ventriculographies were obtained in the next thirty minutes and averaged.
# Solubility = assay type: physicochemical
# Method: The solubility of berberine and other similar compounds of the invention may be altered by changing the pH of the solution having each compound its optimum of pH as far as solubility.
# The protoberine alkaloids are administered in the manner most appropriate under the circumstances. Administration may be oral, sublingual, subcutaneous, transdermal or intramuscular injection. The compounds may be administered by intravenous route, parenterally.
# trained conscious dogs = test: Protocol F: multiple gated radionuclide ventriculography (MUGR), ejection fraction in conscious dogs without failing heart; assay type: in vivo
# Method: To determine further the effects of berberine on patients, experiments were carried out on conscious dogs (Protocol F) and the measurement of left ventricular performance was assessed atraumatically using the multiple gated radionuclide ventriculography (MUGR) similarly to what is done in patients. The multiple gated radionuclide ventriculography is used in patients to assess their cardiac (i.e. left ventricular) performance by analyzing in an. atraumatic manner, the ejection fraction (EF) of the left ventricle. This technique substituted the analysis of ejection fraction by contrast angiography since the latter can be done only in the catheterization laboratory with the patient submitted to the introduction of catheters into his arteries and left ventricular cavity as well as an injection of a radio-opaque dye. MUGR consists in using red blood cells labelled with stannous radioactive technetium. These red blod cells can be labelled either in vivo or in vitro prior to injection. The blood that is now emitting gamma radiation can be detected by an external gamma camera. This device can sum many cycles of the heart beat obtaining an average cycle. Then this cycle is divided in time intervals so that, as an example, the end systolic and the end diastolic frames can be identified. Ejection fraction is the end distolic minus the end systolic volumes divided by the end diastolic volume. It indicates therefore the pumping effectiveness of the left ventricle since it measures the fraction (or the percent if multiplied by 100) of the volume of blood that is expelled from the left ventricular cavity. Experiments were carried out in trained conscious dogs. 14.8.108 Bg (40 mCi) of […] used to label red blood cells that were then injected intravenously. […] The images were acquired using fixed density of the left ventricle. They were measured in quadruplicate and averaged. The external gamma camera used was Ohio Nuclear (model VIP 560).
# LD50 = conditions: cat, in vivo
# dogs = test: Lethal dose, repetitive intravenous boluses; conditions: repetitive intravenous boluses within 4 hours
# [3] = system: dogs with acute left ventricular failure; test: MUGR ejection fraction in dogs with acute left ventricular failure after coronary embolization; assay type: in vivo; conditions: another dog, 0.2 mg/Kg/min
# LD50, intravenous bolus = conditions: rat, in vivo
# [4] = second dog (Figure VI), after 15 minutes
smiles,measurement,setting,value
COc1ccc2cc3[n+](cc2c1OC)CCc1cc2c(cc1-3)OCO2 [berberine],side effects,"[1]; 0.002 mg/kg/min 30 minutes then 0.02 mg/kg/min 30 minutes, 3 patients",without untoward side effects
same,side effects,"[1]; 0.2 mg/kg/min, one patient",without untoward side effects
same,side effects,"[1]; 3 patients with cardiomyopathy, 0.02 then 0.2 mg/kg/min, 15 minutes each",None of the patients had side effects
same,cardiac index,"[1]; after 0.02 mg/kg/min, from 2.9",3.7 fiters/min/m^2
same,cardiac output,"[1]; after 0.02 mg/kg/min, from 5.1",6.6 L/min
same,Left ventricular end diastolic pressure,"[1]; after 0.02 mg/kg/min, from 22",16 mmHg
same,ejection fraction,"[1]; after 0.02 mg/kg/min, from 32",36%
same,stroke index,"[1]; after 0.02 mg/kg/min, from 36",50 ml/m^2
same,Stroke volume,"[1]; after 0.02 mg/kg/min, from 62",89 mL
same,Aortic diastolic pressure,"[1]; after 0.02 mg/kg/min, from 78",68 mmHg
same,"Heart rate, average","[1]; after 0.02 mg/kg/min, from 82",76 beats/min
same,Aortic mean pressure,"[1]; after 0.02 mg/kg/min, from 93",80 mmHg
same,Aortic systolic pressure,"[1]; after 0.02 mg/kg/min, from 115",104 mmHg
same,Left ventricular systolic pressure,"[1]; after 0.02 mg/kg/min, from 116",106 mmHg
same,Calculated systemic peripheral resistance,"[1]; after 0.02 mg/kg/min, from 1339",883 10^-5N·S·cm^-5
same,Aortic diastolic pressure,[1]; after 0.2 mg/kg/min,67 mmHg
same,Aortic mean pressure,[1]; after 0.2 mg/kg/min,84 mmHg
same,Aortic systolic pressure,[1]; after 0.2 mg/kg/min,108 mmHg
same,Calculated systemic peripheral resistance,[1]; after 0.2 mg/kg/min,794 10^-5N·S·cm^-5
same,"Heart rate, average",[1]; after 0.2 mg/kg/min,79 beats/min
same,Left ventricular end diastolic pressure,[1]; after 0.2 mg/kg/min,15 mmHg
same,Left ventricular systolic pressure,[1]; after 0.2 mg/kg/min,110 mmHg
same,Stroke volume,[1]; after 0.2 mg/kg/min,102 mL
same,cardiac index,[1]; after 0.2 mg/kg/min,4.2 fiters/min/m^2
same,cardiac output,[1]; after 0.2 mg/kg/min,7.4 L/min
same,ejection fraction,[1]; after 0.2 mg/kg/min,40%
same,stroke index,[1]; after 0.2 mg/kg/min,58 ml/m^2
same,LV-VPM (left ventricular peak measured shortening velocoty of the contracile elements),"[1]; after berberine, from 0.7",0.9
same,LV-V max (left ventricular maximal shortening velocity of the contractile element),"[1]; after berberine, from 0.9",1.1
same,Left ventricular end diastolic pressure,"[1]; one patient, after 0.02 mg/kg/min, from 21",11 mmHg
same,Left ventricular end diastolic pressure,"[1]; one patient, after 0.2 mg/kg/min",9 mmHg
same,inhibition of NaK-ATPase activity,NaK-ATPase,inactive
same,EF,"[2]; another dog, at 2, 39 after embolization",60%
same,EF,"[2]; another dog, at 15",62%
same,EF,"[2]; one dog, 2 minutes of infusion, 27 after embolization",35%
same,EF,"[2]; one dog, 15 minutes",37%
same,EF,"[2]; one dog, 22 minutes",39%
same,EF,"[2]; one dog, 28 minutes",38%
same,increase of EF,[2]; six dogs,~50%
same,left ventricular ejection fraction (EF),"[2]; six dogs, during 30 minute infusion 0.2 mg/Kg/min, from 27 ± 3",40 ± 3%
same,EF after the discontinuation of infusion,"[2]; six dogs, next half an hour",continued to be significantly elevated
same,solubility as a function of pH,Solubility,increases when pH is lowered towards acidity
same,solubility in sugar solutions,Solubility,soluble (among others) in sugar solutions
same,"ejection fraction (EF), average","trained conscious dogs; one dog, after first infusion",44 ± 2%
same,"ejection fraction (EF), average","trained conscious dogs; one dog, after second infusion",40 ± 2%
same,increase of EF versus the pre-berberine period,"trained conscious dogs; one dog, first infusion",33%
same,ejection fraction (EF),"trained conscious dogs; one dog, first infusion 0.7 mg/Kg/min 5 minutes, 1st reading (5 min), pre-berberine 33 ± 2",46%
same,ejection fraction (EF),"trained conscious dogs; one dog, first infusion, 2nd reading (15 min)",47%
same,ejection fraction (EF),"trained conscious dogs; one dog, first infusion, 3rd reading (30 min)",44%
same,ejection fraction (EF),"trained conscious dogs; one dog, first infusion, 4th reading (45 min)",38%
same,ejection fraction (EF),"trained conscious dogs; one dog, second infusion, 1st reading",46%
same,ejection fraction (EF),"trained conscious dogs; one dog, second infusion, 2nd reading",37%
same,ejection fraction (EF),"trained conscious dogs; one dog, second infusion, 3rd reading",40%
same,ejection fraction (EF),"trained conscious dogs; one dog, second infusion, 4th reading",38%
same,ejection fraction,"trained conscious dogs; second dog (Figure VI), 0.7 mg/Kg/min for 15 minutes, 1st reading, from 50",54%
same,ejection fraction,"trained conscious dogs; second dog (Figure VI), 2nd reading",65%
same,ejection fraction,trained conscious dogs; [4],70%
same,increase of ejection fraction,trained conscious dogs; [4],40%
same,LD50,LD50,~55 mg/kg
same,average dose resulting in death due to arterial systemic hypotension,dogs,120 mg/kg
same,EF,[3]; at 20,55%
same,EF,[3]; at 30,55%
same,LD50,"LD50, intravenous bolus",~55 mg/kg
